The values below come from patent publication US20040266784A1, “Calcium channel inhibitors comprising benzhydril spaced from piperazine” (priority 1998, published 2004).

Broadly, the IC50 is the concentration needed to halve the response being measured.

Where two headings read alike, the source gives them in different places.

This assay deals with T1, rat N-type channels (α1B+α2δ+β1b subunits) (Rattus norvegicus, UniProt Q02294).
T1 construct: expressed in transfected cells
Description: Whole cell patch clamp, N-type calcium channel block in HEK 293 cells. It is filed as cell-based. The procedure:
Antagonist activity was measured using whole cell patch recordings on human embryonic kidney cells either stably or transiently expressing rat N-type channels (α1B+[…]+β1b subunits) with 5 mM barium as a charge carrier. Alternatively, cells either stably or transiently expressing rat L-type channels (α1C+α2δ+β1b cDNA subunits) and P/Q-type channels (α1A+α2δ+β1b cDNA subunits)
HEK 293 cells were transfected by a standard calcium-phosphate-DNA coprecipitation method using the rat α1B+β1b+α2δ N-type calcium channel subunits in a vertebrate expression vector (for example, see Current Protocols in Molecular Biology).
After an incubation period of from 24 to 72 hrs the culture medium was removed and replaced with external recording solution (see below). Whole cell patch clamp experiments were performed using an Axopatch 200B amplifier (Axon Instruments, Burlingame, Calif.) linked to an IBM compatible personal computer equipped with pCLAMP software. […] Current data shown were elicited by a train of 100 ms test pulses at 0.066 Hz from −100 mV and/or −80 mV to various potentials (min. −20 mV, max. +30 mV). Drugs were perfused directly into the vicinity of the cells using a microperfusion system.
Normalized dose-response curves were fit (Sigmaplot 4.0, SPSS Inc., Chicago, Ill.) by the Hill equation to determine IC50 values. Steady-state inactivation curves were plotted as the normalized test pulse amplitude following 5 s inactivating prepulses at +10 mV increments.
Alternatively, N-type calcium channels (α1B+α2δ+β1b cDNA subunits), L-type channels (α1C+α2δ+β1b cDNA subunits) and P/Q-type channels (α1A+α2δ+β1b cDNA subunits) were transiently expressed in HEK 293 cells. Briefly, cells were cultured in Dulbecco's modified eagle medium (DMEM) supplemented with 10% fetal bovine serum, 200 U/ml penicillin and 0.2 mg/ml streptomycin at 37° C. with 5% CO2. […] At 12 hours the medium was replaced and the cells transiently transfected using a standard calcium phosphate protocol and the appropriate calcium channel cDNAs. Fresh DMEM was supplied and the cells transferred to 28° C./5% CO2.
Whole cell patch clamp experiments were performed using an Axopatch 200B amplifier (Axon Instruments, Burlingame, Calif.) linked to a personal computer equipped with pCLAMP software. […] Currents were typically elicited from a holding potential of −80 mV to +10 mV using Clampex software (Axon Instruments). […] The compounds were then applied during the low frequency pulse trains for two to three minutes to assess tonic block, and subsequently the pulse frequency was increased to 0.2 Hz to assess frequency dependent block. Data were analyzed using Clampfit (Axon Instruments) and SigmaPlot 4.0 (Jandel Scientific).
(In general: The patch-clamp technique gives a direct electrical read-out from membranes.)

[1] abbreviates: 0.067 Hz, read-out: IC50 for N-type Calcium Channel Block (0.067 Hz).
Setting [2] is: 0.2 Hz, read-out: IC50 for N-type Calcium Channel Block (0.2 Hz).

T1 sequence (Q02294 whole entry): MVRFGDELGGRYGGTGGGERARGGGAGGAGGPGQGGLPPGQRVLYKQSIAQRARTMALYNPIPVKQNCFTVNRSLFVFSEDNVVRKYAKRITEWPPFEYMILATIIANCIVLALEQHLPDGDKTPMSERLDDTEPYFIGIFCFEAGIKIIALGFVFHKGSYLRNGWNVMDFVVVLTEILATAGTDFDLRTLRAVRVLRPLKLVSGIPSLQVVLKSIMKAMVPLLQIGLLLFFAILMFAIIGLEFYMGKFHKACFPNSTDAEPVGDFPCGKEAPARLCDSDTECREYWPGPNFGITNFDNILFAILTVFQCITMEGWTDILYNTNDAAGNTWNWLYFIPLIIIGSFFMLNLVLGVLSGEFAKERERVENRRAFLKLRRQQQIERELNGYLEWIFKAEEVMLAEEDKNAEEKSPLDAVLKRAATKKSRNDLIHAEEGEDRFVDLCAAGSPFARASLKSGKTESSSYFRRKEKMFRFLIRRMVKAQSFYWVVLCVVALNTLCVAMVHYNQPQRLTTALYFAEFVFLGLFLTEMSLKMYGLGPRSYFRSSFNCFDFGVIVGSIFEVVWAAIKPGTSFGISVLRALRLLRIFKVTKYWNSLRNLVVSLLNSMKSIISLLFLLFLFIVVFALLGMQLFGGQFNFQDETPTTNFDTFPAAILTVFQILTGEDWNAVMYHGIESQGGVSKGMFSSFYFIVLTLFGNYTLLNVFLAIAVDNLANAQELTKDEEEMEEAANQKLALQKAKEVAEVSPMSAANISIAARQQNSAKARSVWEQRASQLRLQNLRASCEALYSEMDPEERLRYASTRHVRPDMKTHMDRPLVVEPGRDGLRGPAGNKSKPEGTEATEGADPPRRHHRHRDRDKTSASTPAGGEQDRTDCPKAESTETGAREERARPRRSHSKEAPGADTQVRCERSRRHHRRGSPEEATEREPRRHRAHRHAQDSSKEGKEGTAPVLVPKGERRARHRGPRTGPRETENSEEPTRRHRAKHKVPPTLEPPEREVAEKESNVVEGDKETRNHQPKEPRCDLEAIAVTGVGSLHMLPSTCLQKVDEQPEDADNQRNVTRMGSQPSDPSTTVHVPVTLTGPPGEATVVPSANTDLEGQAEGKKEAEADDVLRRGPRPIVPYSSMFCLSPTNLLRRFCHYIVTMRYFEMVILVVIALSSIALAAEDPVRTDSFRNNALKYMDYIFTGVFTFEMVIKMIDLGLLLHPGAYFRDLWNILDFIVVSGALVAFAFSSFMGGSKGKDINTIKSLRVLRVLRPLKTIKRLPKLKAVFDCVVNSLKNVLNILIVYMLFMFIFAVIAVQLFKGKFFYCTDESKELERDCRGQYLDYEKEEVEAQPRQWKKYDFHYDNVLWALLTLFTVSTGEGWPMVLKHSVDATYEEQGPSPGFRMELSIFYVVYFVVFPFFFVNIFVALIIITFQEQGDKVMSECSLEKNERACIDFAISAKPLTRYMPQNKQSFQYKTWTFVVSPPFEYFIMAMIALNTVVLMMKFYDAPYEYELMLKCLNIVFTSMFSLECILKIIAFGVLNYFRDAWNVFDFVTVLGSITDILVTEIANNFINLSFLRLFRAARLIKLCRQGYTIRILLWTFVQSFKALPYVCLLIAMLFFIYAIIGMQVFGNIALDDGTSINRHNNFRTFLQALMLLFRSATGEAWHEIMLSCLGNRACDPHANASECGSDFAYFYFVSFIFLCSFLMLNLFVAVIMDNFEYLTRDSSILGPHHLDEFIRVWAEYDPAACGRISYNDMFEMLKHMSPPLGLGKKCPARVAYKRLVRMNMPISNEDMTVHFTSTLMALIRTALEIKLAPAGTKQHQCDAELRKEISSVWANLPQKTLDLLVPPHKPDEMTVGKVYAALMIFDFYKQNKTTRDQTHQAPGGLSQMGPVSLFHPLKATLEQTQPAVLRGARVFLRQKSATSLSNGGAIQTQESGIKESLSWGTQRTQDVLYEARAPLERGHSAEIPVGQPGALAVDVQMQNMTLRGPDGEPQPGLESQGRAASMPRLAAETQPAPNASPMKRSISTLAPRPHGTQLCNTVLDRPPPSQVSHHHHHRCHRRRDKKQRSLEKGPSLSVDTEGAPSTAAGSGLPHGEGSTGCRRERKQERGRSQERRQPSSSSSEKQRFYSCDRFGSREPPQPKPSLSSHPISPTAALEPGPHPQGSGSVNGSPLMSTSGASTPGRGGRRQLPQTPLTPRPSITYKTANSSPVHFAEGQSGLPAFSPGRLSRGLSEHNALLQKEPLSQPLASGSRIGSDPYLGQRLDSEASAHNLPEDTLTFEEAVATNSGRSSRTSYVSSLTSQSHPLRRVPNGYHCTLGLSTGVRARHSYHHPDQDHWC
T1 sequence (P54290 25-944 partner limits assumed): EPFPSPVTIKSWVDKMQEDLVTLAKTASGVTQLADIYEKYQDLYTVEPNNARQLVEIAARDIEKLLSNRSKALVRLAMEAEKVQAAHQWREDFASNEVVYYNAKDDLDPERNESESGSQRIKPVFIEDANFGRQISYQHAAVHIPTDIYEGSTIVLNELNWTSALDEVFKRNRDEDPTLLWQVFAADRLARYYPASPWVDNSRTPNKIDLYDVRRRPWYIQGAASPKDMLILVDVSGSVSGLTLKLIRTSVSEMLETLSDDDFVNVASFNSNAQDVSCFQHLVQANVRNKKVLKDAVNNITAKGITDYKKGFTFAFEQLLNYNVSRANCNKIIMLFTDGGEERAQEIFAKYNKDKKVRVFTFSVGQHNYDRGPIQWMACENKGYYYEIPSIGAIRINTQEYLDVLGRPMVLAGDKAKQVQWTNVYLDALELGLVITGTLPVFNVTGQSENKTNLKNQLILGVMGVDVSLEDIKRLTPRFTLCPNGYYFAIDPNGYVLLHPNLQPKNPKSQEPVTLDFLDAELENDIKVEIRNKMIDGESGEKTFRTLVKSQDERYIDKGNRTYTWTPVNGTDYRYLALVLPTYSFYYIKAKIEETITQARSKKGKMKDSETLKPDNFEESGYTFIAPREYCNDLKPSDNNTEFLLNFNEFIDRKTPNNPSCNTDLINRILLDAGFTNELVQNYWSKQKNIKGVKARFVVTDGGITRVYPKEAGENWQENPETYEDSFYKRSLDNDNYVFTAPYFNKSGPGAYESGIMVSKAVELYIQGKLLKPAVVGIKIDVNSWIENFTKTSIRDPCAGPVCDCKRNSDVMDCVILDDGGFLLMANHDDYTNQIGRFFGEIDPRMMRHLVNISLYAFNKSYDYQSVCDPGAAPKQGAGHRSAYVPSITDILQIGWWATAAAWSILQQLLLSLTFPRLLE
T1 sequence (P54290 945-1091 partner limits assumed): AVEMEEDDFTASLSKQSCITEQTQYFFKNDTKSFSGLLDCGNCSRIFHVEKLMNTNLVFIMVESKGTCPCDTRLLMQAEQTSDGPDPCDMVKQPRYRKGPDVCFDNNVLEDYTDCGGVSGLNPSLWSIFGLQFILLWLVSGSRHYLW
T1 sequence (P54283 whole entry partner): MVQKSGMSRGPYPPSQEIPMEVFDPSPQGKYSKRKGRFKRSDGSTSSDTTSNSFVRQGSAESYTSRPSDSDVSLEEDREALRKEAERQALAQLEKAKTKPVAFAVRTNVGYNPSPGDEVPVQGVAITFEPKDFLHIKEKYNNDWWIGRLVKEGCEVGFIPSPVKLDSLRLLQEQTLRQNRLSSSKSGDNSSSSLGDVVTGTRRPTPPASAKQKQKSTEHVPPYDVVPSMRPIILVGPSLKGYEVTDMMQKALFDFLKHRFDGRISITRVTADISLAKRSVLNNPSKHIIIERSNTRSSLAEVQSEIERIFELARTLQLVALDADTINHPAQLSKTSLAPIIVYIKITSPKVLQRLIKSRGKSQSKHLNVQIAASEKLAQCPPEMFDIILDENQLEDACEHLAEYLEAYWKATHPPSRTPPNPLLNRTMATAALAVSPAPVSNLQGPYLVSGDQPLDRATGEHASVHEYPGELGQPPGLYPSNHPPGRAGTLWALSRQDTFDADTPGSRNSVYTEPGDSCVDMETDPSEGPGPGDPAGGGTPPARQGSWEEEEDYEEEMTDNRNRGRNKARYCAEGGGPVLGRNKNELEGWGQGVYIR

Take `COc1ccc(C(=O)N2CCN(C(=O)CCCCC(c3ccc(F)cc3)c3ccc(F)cc3)CC2)cc1OC` [Compound P64]: the concentration for half-maximal inhibition (IC50) stood at 541 nM under setting [1] and 390 nM under setting [2].
On to `COc1cc(C(=O)N2CCN(C(=O)CCCCC(O)(c3ccc(F)cc3)c3ccc(F)cc3)CC2)cc(OC)c1OC` [Compound P46, 6,6-bis-(4-fluoro-phenyl)-6-hydroxy-1-[4-(3,4,5,-trimethoxy-benzoyl)-piperazin-1-yl]-hexan-1-one], for which the concentration for half-maximal inhibition (IC50) was 430 nM under setting [1] and 340 nM under setting [2].
With `COc1ccc(CN2CCN(CCCCCC(c3ccc(F)cc3)c3ccc(F)cc3)CC2)cc1OC` [Compound P63], the IC50 was 319 nM under setting [1] and 258 nM under setting [2].
Take `COc1cc(CN2CCN(CCCCCC(c3ccc(F)cc3)c3ccc(F)cc3)CC2)cc(OC)c1O` [Compound P101]: the IC50 amounted to 277 nM under setting [1] and 203 nM under setting [2].
Regarding `CC(C)(C)c1cc(C(=O)N2CCN(C(=O)CCCCC(c3ccc(F)cc3)c3ccc(F)cc3)CC2)cc(C(C)(C)C)c1O` [Compound P28], the 50% inhibitory concentration (IC50) came to 379 nM under setting [1] and 217 nM under setting [2].
For the molecule `Cc1cc(OC[C@@H](O)CN2CCN(CCCCCC(c3ccc(F)cc3)c3ccc(F)cc3)CC2)c(C)c(C)c1N` [Compound P67], the concentration for half-maximal inhibition (IC50) by setting is: under setting [1], 1050 nM; under setting [2], 928 nM.
`COc1c(C(C)(C)C)cc(CN2CCN(C(=O)CCCCC(c3ccc(F)cc3)c3ccc(F)cc3)CC2=O)cc1C(C)(C)C` [Compound P52]: the concentration for half-maximal inhibition (IC50) turned out to be 400 nM under setting [1] and 370 nM under setting [2].
Regarding `O=C(CCCCC(c1ccc(F)cc1)c1ccc(F)cc1)N1CCN(CCOc2ccc(F)cc2)CC1` [Compound P79], the IC50 by setting is: under setting [1], 579 nM; under setting [2], 423 nM.
The matching figures for `O=C(CCCCC(c1ccc(F)cc1)c1ccc(F)cc1)N1CCN(c2nc3ccccc3s2)CC1` [Compound P69]: 502 nM and 410 nM.
As for `COc1cc(CN2CCN(CCCCCC(c3ccc(F)cc3)c3ccc(F)cc3)[C@@H](C(=O)O)C2)cc(OC)c1OC` [Compound P61], the IC50 runs as follows: under setting [1], 610 nM; under setting [2], 520 nM.
Consider `Fc1ccc(C(CCCCCN2CCN(CCSc3nc4ccccc4s3)CC2)c2ccc(F)cc2)cc1` [Compound P74], for which the half-inhibitory concentration (IC50) is, setting by setting: under setting [1], 660 nM; under setting [2], 430 nM.
In the same order, the values of `Fc1ccc(C(CCCCCN2CCN(Cc3cc(C(F)(F)F)cc(C(F)(F)F)c3)CC2)c2ccc(F)cc2)cc1` [Compound P70] are 1040 nM and 1060 nM.
On to `COc1cc(CN2CCN(CCCCCCCCC(c3ccc(F)cc3)c3ccc(F)cc3)CC2)cc(OC)c1OC` [Compound P40], for which the IC50 amounted to 286 nM under setting [1] and 214 nM under setting [2].
In the case of `Cc1cc(OC[C@@H](O)CN2CCN(C(=O)CCCCC(c3ccc(F)cc3)c3ccc(F)cc3)CC2)c(C)c(C)c1N` [Compound P68], the IC50 is, setting by setting: under setting [1], 1580 nM; under setting [2], 975 nM.
For `CC(C)(C)c1ccc(C(=O)N2CCN(C(=O)CCCCC(c3ccc(F)cc3)c3ccc(F)cc3)CC2)cc1` [Compound P72], the IC50 runs as follows: under setting [1], 808 nM; under setting [2], 630 nM.
The matching figures for `COc1ccc(OCCN2CCN(CCCCCC(c3ccc(F)cc3)c3ccc(F)cc3)CC2)cc1OC` [Compound P60, 1-[6,6-bis-(4-fluoro-phenyl)-hexyl]-4-[2-(3,4,-dimethoxy-phenoxy)-ethyl]-piperazine]: 970 nM and 790 nM.
On to `COc1c(C(C)(C)C)cc(C(=O)N2CCN(C(=O)CCCCC(c3ccc(F)cc3)c3ccc(F)cc3)CC2=O)cc1C(C)(C)C` [Compound P55], for which the IC50 is 190 nM under setting [1] and 150 nM under setting [2].
The matching figures for `Fc1ccc(C(CCCCCN2CCN(Cc3ccc(Br)cc3)CC2)c2ccc(F)cc2)cc1` [Compound P73]: 439 nM and 377 nM.
Take `COc1c(C(C)(C)C)cc(C(=O)N2CCN(CCCCCC(c3ccc(F)cc3)c3ccc(F)cc3)C(=O)C2)cc1C(C)(C)C` [Compound P54]: the half-maximal inhibitory concentration (IC50) turned out to be 120 nM under setting [1] and 76 nM under setting [2].
Consider `Fc1ccc(C(CCCCCN2CCN(Cc3ccc(OC(F)(F)F)cc3)CC2)c2ccc(F)cc2)cc1` [Compound P77], for which the IC50 runs as follows: under setting [1], 280 nM; under setting [2], 220 nM.
`COc1cc(C(=O)N2CCN(C(=O)CCCCC(c3ccc(F)cc3)c3ccc(F)cc3)CC2)cc(OC)c1O` [Compound P75]: the IC50 reads like this: under setting [1], 839 nM; under setting [2], 603 nM.
In the same order, the values of `COc1cc(OCCN2CCN(CCCCCC(c3ccc(F)cc3)c3ccc(F)cc3)CC2)cc(OC)c1OC` [Compound P66] are 800 nM and 550 nM.
With `COc1cc(CN2CCN(C(=O)CCCCCCCC(c3ccccc3)c3ccccc3)CC2)cc(OC)c1OC` [Compound P102], the 50% inhibitory concentration (IC50) reads like this: under setting [1], 419 nM; under setting [2], 292 nM.
On to `O=C(CCCCC(c1ccc(F)cc1)c1ccc(F)cc1)N1CCN(CCNc2ccccc2)CC1` [Compound P80], for which the IC50 stood at 960 nM under setting [1] and 660 nM under setting [2].
Consider `Fc1ccc(C(CCCCCN2CCN(c3nc4ccccc4s3)CC2)c2ccc(F)cc2)cc1` [Compound P32], for which the IC50 was 345 nM under setting [1] and 245 nM under setting [2].
In the same order, the values of `COc1cc(C(=O)N2CCN(C(=O)CCCC(O)C(c3ccc(F)cc3)c3ccc(F)cc3)CC2)cc(OC)c1OC` (stereo not shown) [Compound P44, 6,6-bis-(4-fluoro-phenyl)-5-hydroxy-1-[4-(3,4,5-trimethoxy-benzoyl)-piperazin-1-yl]-hexan-1-one] are 280 nM and 180 nM.
For the molecule `COc1ccc(OCCN2CCN(C(=O)CCCCC(c3ccc(F)cc3)c3ccc(F)cc3)CC2)cc1OC` [Compound P59, 1-{4-[2-(3,4-dimethoxy-phenoxy)ethyl]-piperazin-1-yl}-6,6-bis-(4-fluoro-phenyl)-hexan-1-one], the 50% inhibitory concentration (IC50) is 810 nM under setting [1] and 430 nM under setting [2].
Take `O=C1CN(C(=O)CCCCC(c2ccc(F)cc2)c2ccc(F)cc2)CCN1CCOc1ccc(F)cc1` [Compound P53]: the IC50 came out at 200 nM under setting [1] and 980 nM under setting [2].
As for `CCOC(=O)C1CN(CCCCCC(c2ccc(F)cc2)c2ccc(F)cc2)CCN1Cc1cc(OC)c(OC)c(OC)c1` (stereo not shown) [Compound P62], the IC50 by setting is: under setting [1], 680 nM; under setting [2], 410 nM.
Turning to `Fc1ccc(C(CCCCCN2CCN(CCOc3ccc4c(c3)OCO4)CC2)c2ccc(F)cc2)cc1` [Compound P65], the 50% inhibitory concentration (IC50) runs as follows: under setting [1], 705 nM; under setting [2], 517 nM.
The matching figures for `O=C(CCCCC(c1ccc(F)cc1)c1ccc(F)cc1)N1CCN(C(=O)c2cc(C(F)(F)F)cc(C(F)(F)F)c2)CC1` [Compound P71]: 870 nM and 510 nM.
For the molecule `Oc1c(Br)cc(CN2CCN(CCCCCC(c3ccc(F)cc3)c3ccc(F)cc3)CC2)cc1Br` [Compound P76], the IC50 stood at 680 nM under setting [1] and 514 nM under setting [2].
`COc1cc(CNCCN2CCN(CCCCCC(c3ccc(F)cc3)c3ccc(F)cc3)CC2)cc(OC)c1OC` [Compound P78]: the 50% inhibitory concentration (IC50) stood at 64 nM under setting [1] and 30 nM under setting [2].
As to `CC(C)(C)c1cc(C(=O)N2CCN(C(=O)CCCCC(c3ccc(F)cc3)c3ccc(F)cc3)C(=O)C2)cc(C(C)(C)C)c1O` [Compound P57], the IC50 came out at 600 nM under setting [1] and 400 nM under setting [2].
Take `COc1cc(CN2CCN(C(=O)CCCCC(c3ccc(F)cc3)c3ccc(F)cc3)CC2=O)cc(OC)c1OC` [Compound P48, 4-[6,6-bis-(4-fluoro-phenyl)-hexanoyl]-1-(3,4,5,-trimethoxy-benzyl)-piperazin-2-one]: the concentration for half-maximal inhibition (IC50) reads like this: under setting [1], 102 nM; under setting [2], 56 nM.
